Assay results from patent US20260365696A1, “INHIBITORS OF PTP1B / NCK1 INTERACTION AND METHODS OF MAKING AND USING SAME” (Radella Pharmaceuticals LLC, priority 2023, published 2026).

Biological target: T1, interaction between PTP1B and the SH3-2 domain of NCK1 (Homo sapiens, UniProt P16333)
T1 construct: FLAG-PTP1B from HEK293 lysate
Assay: GST pull-down / co-immunoprecipitation screen for disruption of the PTP1B / NCK1 SH3-2 interaction
Type: binding
Details: peptide 1 mM; for disruption of the interaction between PTP1B and the SH3-2 domain of NCK1: GST-SH3-2 and FLAG-PTP1B
Description: FIG. 4A depicts an immunoblot showing that certain peptides prevent co-immunoprecipitation of FLAG-PTP1B and GST-tagged SH3-2 domain of NCK1 (“SH3”). GST was fused to full-length NCK1 (“Nck1”), all SH3 domains of NCK1 (“SH3”), the NCK1 SH2 domain (“SH2”), the NCK1 SH3-1 domain (“SH3 1”), the NCK1 SH3-2 domain (“SH3 2”), and the NCK1 SH3-3 domain (“SH3 3”). GST alone was used as a negative control (“GST”). FLAG-PTP1B was incubated with the indicated bead-bound GST-fusion protein, and FLAG-PTP1B was detected in the IP eluate by western blotting. The outlined region in column “SH3-2” identifies the PTP1B band. For GST-SH3-2 and FLAG-PTP1B, the mixture was further incubated with one of peptides A through K, (1 mM). FIG. 4B depicts an input control for the immunoblot. FIG. 4C depicts a Ponceau stain for the immunoblot, which was used to measure total protein.
Construction and Purification of GST constructs: Human NCK1 (NM_006153) human cDNA was obtained (Origene, MD, USA). GST fusion constructs (GST-only control, GST full length NCK1, GST all SH3 domains of NCK1, GST SH2 domain of NCK1, GST SH3-1, GST SH3-2 and GST SH3-3) were amplified, double digested (EcoRI and XhoI, New England Biolabs), ligated in to pGEX-6P-2 vector (#M2200S, New England Biolabs; #GE28-9546-50, Merck), transformed in to DH5α E. coli cells (#C2987H, NEB) and purified using a plasmid preparation kit according to manufacturer's instructions (#T1010, New England Biolabs). GST-constructs were transformed in to BL21-Gold E. coli cells (#230134, Agilent), and GST-fusion proteins were produced, extracted, and bound to GST beads as described in Example 1. Beads were washed three times with STE buffer and stored at 4 °C.
GST pull-down experiments for compounds screening against FLAG PTP1B interaction with SH3-2 domain of NCK1. GST-bound agarose beads of SH3-2 domain were incubated overnight at 4 °C with lysates from HEK293 cells overexpressing FLAG PTP1B protein, to gether with various peptide compounds (1 mM) to screen for inhibition of PTP1B-NCK1 binding. Following overnight incubation, agarose beads were three times washed in STE buffer, and proteins were eluted in SDS-Laemmli buffer by heating at 95 °C for 10 min. Samples were spun at 12,000 rpm for 2 min, and the liquid fraction was transferred in to 1 mL Eppendorf tubes. Proteins were separated and detected by chemiluminescent Western Blotting (PEQLAB, Germany) using anti-FLAG HRP antibody (#A8592, Sigma).

Substance | binding to full-length NCK1 (concluded from pull-down) | disruption of the interaction between PTP1B and the SH3-2 domain of NCK1
Ac-PPPEHIPPPPRPPKR-NH2 [MD17] | bind to full-length NCK1, specifically, at SH3-2 domain | disrupt the interaction between PTP1B and the SH3-2 domain of NCK1
Ac-PRPPKR-NH2 [MD20, Ac-PRPPKR-NH2] | bind to full-length NCK1, specifically, at SH3-2 domain | disrupt the interaction between PTP1B and the SH3-2 domain of NCK1
